From ChEMBL document CHEMBL1201861, “Genomics of Drug Sensitity in Cancer screening data, Wellcome Trust Sanger Institute”

Key:
Format in all cases: functional, cell-based
[1] = tested on: MHH-CALL-2; assay: cells; details: Homo sapiens;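 note: growth inhibition of the cell line, read out in a cell viability assay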
Description: SANGER: Inhibition of human MHH-CALL-2 cell growth in a cell viability assay.

[2] = tested on: SNU-C1; assay: cells; details: Homo sapiens;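 note: growth inhibition of SNU-C1 human cells, read out by a cell viability assay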
Description: SANGER: Inhibition of human SNU-C1 cell growth in a cell viability assay.

[3] = tested on: K052; assay: cells; details: Homo sapiens;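 note: Read-out from a cell viability assay, IC50 reflecting suppression of K052 cell growth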
Description: SANGER: Inhibition of human K052 cell growth in a cell viability assay.

[4] = tested on: ECC12; assay: cells; details: Homo sapiens
Description: SANGER: Inhibition of human ECC12 cell growth in a cell viability assay.

[5] = tested on: THP-1; assay: cells; details: Homo sapiens;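 note: growth inhibition of THP-1 cells, read out via a cell viability assay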
Description: SANGER: Inhibition of human THP-1 cell growth in a cell viability assay.

[6] = tested on: NCI-H345; assay: cells; details: Homo sapiens;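 note: growth inhibition of NCI-H345 cells measured with a cell viability assay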
Description: SANGER: Inhibition of human NCI-H345 cell growth in a cell viability assay.

[7] = tested on: Raji; assay: cells; details: Homo sapiens;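 note: cell viability assay measuring inhibition of Raji cell growth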
Description: SANGER: Inhibition of human Raji cell growth in a cell viability assay.

[8] = tested on: LC-1F; assay: cells; details: Homo sapiens;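 note: growth inhibition of human LC-1F cells, read out with a cell viability assay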
Description: SANGER: Inhibition of human LC-1F cell growth in a cell viability assay.

[9] = tested on: PF-382; assay: cells; details: Homo sapiens
Description: SANGER: Inhibition of human PF-382 cell growth in a cell viability assay.

[10] = tested on: RPMI-6666; assay: cells; details: Homo sapiens
Description: SANGER: Inhibition of human RPMI-6666 cell growth in a cell viability assay.

[11] = tested on: ECC4; assay: cells; details: Homo sapiens;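 note: growth inhibition of ECC4 cells, read out with a cell viability assay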
Description: SANGER: Inhibition of human ECC4 cell growth in a cell viability assay.

[12] = tested on: UACC-812; assay: cells; details: Homo sapiens
Description: SANGER: Inhibition of human UACC-812 cell growth in a cell viability assay.

[13] = tested on: GDM-1; assay: cells; details: Homo sapiens;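 note: cell viability readout used to measure growth inhibition of human GDM-1 cells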
Description: SANGER: Inhibition of human GDM-1 cell growth in a cell viability assay.

[14] = tested on: BL-70; assay: SANGER: Inhibition of human BL-70 cell growth in a cell viability assay.
[15] = tested on: BC1 cell line; assay: SANGER: Inhibition of human BC-1 cell growth in a cell viability assay.
[16] = tested on: WSU-NHL; assay: cells; details: Homo sapiens;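 note: growth inhibition of human WSU-NHL cells, read out with a cell viability assay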
Description: SANGER: Inhibition of human WSU-NHL cell growth in a cell viability assay.

[17] = tested on: NB1; assay: cells; details: Homo sapiens;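 note: reduction of NB1 cell proliferation, read out with a viability assay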
Description: SANGER: Inhibition of human NB1 cell growth in a cell viability assay.

[18] = tested on: TALL-1; assay: cells; details: Homo sapiens;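 note: growth inhibition of cultured human TALL-1 cells, read out by a cell viability assay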
Description: SANGER: Inhibition of human TALL-1 cell growth in a cell viability assay.

[19] = tested on: NCI-H1522; assay: cells; details: Homo sapiens;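 note: growth inhibition of NCI-H1522 cells, read out with a cell viability assay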
Description: SANGER: Inhibition of human NCI-H1522 cell growth in a cell viability assay.

[20] = tested on: IMR-5; assay: cells; details: Homo sapiens;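 note: growth inhibition of human IMR-5 cells, read out with a cell viability assay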
Description: SANGER: Inhibition of human IMR-5 cell growth in a cell viability assay.

[21] = tested on: RL; assay: cells; details: Homo sapiens
Description: SANGER: Inhibition of human RL cell growth in a cell viability assay.

[22] = tested on: REH; assay: cells; details: Homo sapiens;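 note: growth inhibition of REH cells determined with a cell viability read-out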
Description: SANGER: Inhibition of human REH cell growth in a cell viability assay.

[23] = tested on: JIYOYE; assay: cells; details: Homo sapiens
Description: SANGER: Inhibition of human JiyoyeP-2003 cell growth in a cell viability assay.

[24] = tested on: RPMI 8402; assay: SANGER: Inhibition of human RPMI-8402 cell growth in a cell viability assay.
[25] = tested on: NCI-H1882; assay: cells; details: Homo sapiens
Description: SANGER: Inhibition of human NCI-H1882 cell growth in a cell viability assay.

[26] = tested on: CA46; assay: cells; details: Homo sapiens;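 note: growth inhibition of human CA46 cells, read out by a cell viability assay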
Description: SANGER: Inhibition of human CA46 cell growth in a cell viability assay.

[27] = tested on: BL-41; assay: cells; details: Homo sapiens;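 note: growth inhibition of human BL-41 cells, read out with a cell viability assay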
Description: SANGER: Inhibition of human BL-41 cell growth in a cell viability assay.

[28] = tested on: EB2; assay: cells; details: Homo sapiens;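 note: growth inhibition of EB2 cells, read out with a cell viability assay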
Description: SANGER: Inhibition of human EB2 cell growth in a cell viability assay.

[29] = tested on: NCI-H1436; assay: cells; details: Homo sapiens;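 note: growth suppression of human NCI-H1436 cells, determined with a cell viability readout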
Description: SANGER: Inhibition of human NCI-H1436 cell growth in a cell viability assay.

[30] = tested on: OPM-2; assay: cells; details: Homo sapiens;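 note: growth of OPM-2 cells measured with a viability assay, IC50 for suppression of proliferation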
Description: SANGER: Inhibition of human OPM-2 cell growth in a cell viability assay.

[31] = tested on: KARPAS-422; assay: cells; details: Homo sapiens
Description: SANGER: Inhibition of human KARPAS-422 cell growth in a cell viability assay.

[32] = tested on: CMK; assay: cells; details: Homo sapiens;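 note: growth inhibition of CMK cells, read out as cell viability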
Description: SANGER: Inhibition of human CMK cell growth in a cell viability assay.

[33] = tested on: YT; assay: cells; details: Homo sapiens
Description: SANGER: Inhibition of human YT cell growth in a cell viability assay.

[34] = tested on: LP-1; assay: cells; details: Homo sapiens;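 note: growth inhibition of human LP-1 cells, with the read-out taken from a cell viability assay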
Description: SANGER: Inhibition of human LP-1 cell growth in a cell viability assay.

[35] = tested on: L-540; assay: cells; details: Homo sapiens;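 note: growth inhibition of the human L-540 cell line, read out with a viability assay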
Description: SANGER: Inhibition of human L-540 cell growth in a cell viability assay.

[36] = tested on: NCI-H889; assay: cells; details: Homo sapiens;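 note: cell growth inhibition of the cell line, read out with a viability assay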
Description: SANGER: Inhibition of human NCI-H889 cell growth in a cell viability assay.

[37] = tested on: NCI-H2196; assay: cells; details: Homo sapiens;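 note: cell viability assay used as the readout of growth inhibition in NCI-H2196 cells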
Description: SANGER: Inhibition of human NCI-H2196 cell growth in a cell viability assay.

[38] = tested on: Daudi; assay: cells; details: Homo sapiens;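 note: growth inhibition of Daudi cells, read out by a viability assay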
Description: SANGER: Inhibition of human Daudi cell growth in a cell viability assay.

[39] = tested on: NCI-H2227; assay: cells; details: Homo sapiens;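 note: growth inhibition of the human cell line, read out with a cell viability assay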
Description: SANGER: Inhibition of human NCI-H2227 cell growth in a cell viability assay.

[40] = tested on: LC4-1; assay: cells; details: Homo sapiens;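 note: growth inhibition of LC4-1 cells, read out with a cell viability assay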
Description: SANGER: Inhibition of human LC4-1 cell growth in a cell viability assay.

[41] = tested on: HCC1599; assay: cells; details: Homo sapiens;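 note: growth inhibition of HCC1599 cells, read out in a cell viability assay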
Description: SANGER: Inhibition of human HCC1599 cell growth in a cell viability assay.

[42] = tested on: SUP-T1; assay: cells; details: Homo sapiens;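 note: growth inhibition of human SUP-T1 cells, read out as cell viability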
Description: SANGER: Inhibition of human SUP-T1 cell growth in a cell viability assay.

`C=C1C(=O)O[C@@H]2C3O[C@]3(C)CC/C=C(\C)CC[C@@H]12` (stereo not given in full) showed an IC50 [1] greater than 5 µM, an IC50 [2] greater than 5 µM and an IC50 [3] greater than 5 µM. It also gave an IC50 [4] greater than 5 µM, an IC50 [5] greater than 5 µM and an IC50 [6] greater than 5 µM. For the same molecule, the IC50 [7] was greater than 5 µM, the IC50 [8] was greater than 5 µM and the IC50 [9] was greater than 5 µM. It also gave an IC50 [10] greater than 5 µM, an IC50 [11] greater than 5 µM and an IC50 [12] greater than 5 µM. It also gave an IC50 [13] greater than 5 µM, an IC50 [14] greater than 5 µM and an IC50 [15] greater than 5 µM. The IC50 [16] was greater than 5 µM, the IC50 [17] was greater than 5 µM and the IC50 [18] was greater than 5 µM. The IC50 [19] was greater than 5 µM, the IC50 [20] was greater than 5 µM and the IC50 [21] was greater than 5 µM. It also gave an IC50 [22] greater than 5 µM, an IC50 [23] greater than 5 µM and an IC50 [24] greater than 5 µM. It also gave an IC50 [25] greater than 5 µM, an IC50 [26] greater than 5 µM and an IC50 [27] greater than 5 µM. For the same molecule, the IC50 [28] was greater than 5 µM, the IC50 [29] was greater than 5 µM and the IC50 [30] was greater than 5 µM. For the same molecule, the IC50 [31] was greater than 5 µM, the IC50 [32] was greater than 5 µM and the IC50 [33] was greater than 5 µM. It also gave an IC50 [34] greater than 5 µM, an IC50 [35] greater than 5 µM and an IC50 [36] greater than 5 µM. For the same molecule, the IC50 [37] was 0.645 µM, the IC50 [38] was greater than 5 µM and the IC50 [39] was greater than 5 µM. The IC50 [40] was greater than 5 µM, the IC50 [41] was greater than 5 µM and the IC50 [42] was greater than 5 µM.

With `CC1=C2C[C@H]3[C@@H](CC=C4C[C@@H](O)CC[C@@]43C)[C@@H]2CC[C@]12O[C@@H]1C[C@H](C)CN[C@H]1[C@H]2C` [CYCLOPAMINE] the IC50 [1] was greater than 16 µM, the IC50 [2] was greater than 16 µM and the IC50 [3] was greater than 16 µM. For the same molecule, the IC50 [4] was greater than 16 µM, the IC50 [5] was greater than 16 µM and the IC50 [6] was greater than 16 µM. It also gave an IC50 [7] greater than 16 µM, an IC50 [8] greater than 16 µM and an IC50 [9] greater than 16 µM. The IC50 [10] was greater than 16 µM, the IC50 [11] was greater than 16 µM and the IC50 [12] was greater than 16 µM. For the same molecule, the IC50 [13] was greater than 16 µM, the IC50 [14] was greater than 16 µM and the IC50 [15] was greater than 16 µM. It also gave an IC50 [16] greater than 16 µM, an IC50 [17] greater than 16 µM and an IC50 [18] greater than 16 µM. The IC50 [19] was greater than 16 µM, the IC50 [20] was greater than 16 µM and the IC50 [21] was greater than 16 µM. It also gave an IC50 [22] greater than 16 µM, an IC50 [23] greater than 16 µM and an IC50 [24] of 15.9 µM. For the same molecule, the IC50 [25] was greater than 16 µM, the IC50 [26] was greater than 16 µM and the IC50 [27] was greater than 16 µM. It also gave an IC50 [28] greater than 16 µM, an IC50 [29] greater than 16 µM and an IC50 [30] greater than 16 µM. It also gave an IC50 [31] greater than 16 µM, an IC50 [32] greater than 16 µM and an IC50 [33] greater than 16 µM. The IC50 [34] was greater than 16 µM, the IC50 [35] was greater than 16 µM and the IC50 [36] was greater than 16 µM. It also gave an IC50 [37] greater than 16 µM, an IC50 [38] greater than 16 µM and an IC50 [39] greater than 16 µM. It also gave an IC50 [40] greater than 16 µM, an IC50 [41] greater than 16 µM and an IC50 [42] greater than 16 µM.

`CS(=O)(=O)CCNCc1ccc(-c2ccc3ncnc(Nc4ccc(OCc5cccc(F)c5)c(Cl)c4)c3c2)o1` [LAPATINIB] gave an IC50 [1] greater than 2 µM, an IC50 [2] greater than 2 µM and an IC50 [4] of 0.0923 µM. For the same molecule, the IC50 [5] was greater than 2 µM, the IC50 [6] was greater than 2 µM and the IC50 [7] was greater than 2 µM. It also gave an IC50 [8] of 1.38 µM, an IC50 [9] greater than 2 µM and an IC50 [10] greater than 2 µM. It also gave an IC50 [11] greater than 2 µM, an IC50 [12] greater than 2 µM and an IC50 [13] greater than 2 µM. For the same molecule, the IC50 [14] was greater than 2 µM, the IC50 [15] was greater than 2 µM and the IC50 [16] was greater than 2 µM. The IC50 [17] was greater than 2 µM, the IC50 [18] was greater than 2 µM and the IC50 [19] was greater than 2 µM. The IC50 [20] was greater than 2 µM, the IC50 [21] was greater than 2 µM and the IC50 [22] was greater than 2 µM. It also gave an IC50 [23] greater than 2 µM, an IC50 [24] greater than 2 µM and an IC50 [25] greater than 2 µM. It also gave an IC50 [26] greater than 2 µM, an IC50 [27] greater than 2 µM and an IC50 [28] greater than 2 µM. The IC50 [29] was greater than 2 µM, the IC50 [30] was greater than 2 µM and the IC50 [31] was greater than 2 µM. The IC50 [32] was greater than 2 µM, the IC50 [33] was greater than 2 µM and the IC50 [34] was greater than 2 µM. It also gave an IC50 [35] greater than 2 µM, an IC50 [36] greater than 2 µM and an IC50 [37] greater than 2 µM. For the same molecule, the IC50 [38] was greater than 2 µM, the IC50 [39] was greater than 2 µM and the IC50 [40] was greater than 2 µM. The IC50 [41] was greater than 2 µM and the IC50 [42] was greater than 2 µM.
